In ChEMBL document CHEMBL4393686, “InCl3 mediated heteroarylation of indoles and their derivatization via CH activation strategy: Discovery of 2-(1H-indol-3-yl)-quinoxaline derivatives as a new class of PDE4B selective inhibitors for arthritis and/or multiple sclerosis” (Eur J Med Chem, 2019):
Activity calls are given as the source filed them. No cut-off for these calls is given here.

Assays:
[1] = Initial plasma concentration in BALB/c mouse at 10 mg/kg, iv measured for 24 hrs post dose by LC-MS/MS analysis; format: ADME, organism-based
[2] = test system: Rattus norvegicus; test: Antiarthritic activity in complete Freund's adjuvant-induced Wistar rat arthritis model assessed as reduction in paw volume at 30 mg/kg, ip administered from 11th day to 20th day by vernier caliper analysis; format: functional, organism-based
[3] = Volume of distribution at steady state in BALB/c mouse at 10 mg/kg, iv measured for 24 hrs post dose by LC-MS/MS analysis; format: ADME, organism-based; details: in vivo, read-out: Vdss
[4] = molecular target: Cone cGMP-specific 3',5'-cyclic phosphodiesterase subunit alpha' (Homo sapiens) (UniProt P51160); test: Inhibition of recombinant N-terminal GST-tagged full length human PDE6C expressed in Sf9 cells using FAM-cGMP as substrate at 10 uM incubated for 60 mins by fluorescence plate reader analysis
[5] = Toxicity in zebrafish embryo assessed as effect in heart formation at 1 to 100 uM; format: tissue-based, Danio rerio; details: in vivo
[6] = Half life in rat liver microsomes at 5 uM by LC-MS/MS analysis; format: ADME, Microsome
[7] = Toxicity in zebrafish embryo assessed as effect in fin formation at 1 to 100 uM; set-up: species or system Danio rerio; details: in vivo
[8] = Metabolic stability in rat liver microsomes assessed as compound remaining at 5 uM incubated for 30 mins in presence of air measured after 60 mins by LC-MS/MS analysis; format: ADME, Microsome; details: read-out: Stability
[9] = molecular target: cAMP and cAMP-inhibited cGMP 3',5'-cyclic phosphodiesterase 10A (Homo sapiens) (UniProt Q9Y233); test: Inhibition of recombinant N-terminal GST-tagged full length human PDE10A2 expressed in Sf9 cells using FAM-cAMP as substrate at 10 uM incubated for 60 mins by fluorescence plate reader analysis
[10] = molecular target: cGMP-dependent 3',5'-cyclic phosphodiesterase (Homo sapiens) (UniProt O00408); test: Inhibition of recombinant N-terminal-GST-Th-tagged full length human PDE2A1 expressed in Sf9 cells using FAM-cAMP as substrate at 10 uM incubated for 60 mins by fluorescence plate reader analysis
[11] = Toxicity in zebrafish embryo assessed as effect in notochord formation at 1 to 100 uM; set-up: species or system Danio rerio; details: in vivo
[12] = test system: RAW264.7; test: Antiinflammatory activity in mouse RAW264.7 cells assessed as inhibition of LPS-induced iNOS expression preincubated for 30 mins followed by LPS stimulation and incubated for 10 hrs by immunoblotting analysis; format: functional, cell-based
[13] = test system: Rattus norvegicus; test: Antiarthritic activity in complete Freund's adjuvant-induced Wistar rat arthritis model assessed as reduction in synovial inflammation at 30 mg/kg, ip administered from 11th day to 20th day by H&E staining based microscopic analysis; format: functional, organism-based
[14] = MRTlast in BALB/c mouse at 10 mg/kg, iv measured for 24 hrs post dose by LC-MS/MS analysis; format: ADME, organism-based; details: in vivo
[15] = organism: Homo sapiens; test: Selectivity index, ratio of IC50 for PDE4D2 (unknown origin) to IC50 for recombinant His-tagged human PDE4B expressed in sf9 cells using cAMP as substrate by PDELight HTS cAMP phosphodiesterase Kit based luminometry
[16] = Toxicity in zebrafish embryo assessed as effect in somite formation at 1 to 100 uM; set-up: species or system Danio rerio; details: in vivo
[17] = Hepatotoxicity in zebrafish embryos assessed as yolk sac retention at 1 to 100 uM incubated for 7 dpf; format: toxicity, Danio rerio; details: in vivo
[18] = Toxicity in zebrafish embryo assessed as effect in intestine formation at 1 to 100 uM; format: tissue-based, Danio rerio; details: in vivo
[19] = Cardiotoxicity in zebrafish embryos assessed as heart rate at 1 to 100 uM; format: toxicity, Danio rerio
[20] = AUClast in BALB/c mouse at 10 mg/kg, iv measured for 24 hrs post dose by LC-MS/MS analysis; format: ADME, organism-based; set-up: dose 10 mg/kg, route intravenous, time 0 - last; details: in vivo
[21] = molecular target: 3',5'-cyclic-AMP phosphodiesterase 4B (Homo sapiens, UniProt Q07343); test: Inhibition of human recombinant His-tagged PDE4B expressed in Sf9 cells using cAMP as substrate at 10 uM preincubated with enzyme for 15 mins followed by substrate addition and incubated for 1 hr by PDELight HTS cAMP phosphodiesterase Kit based luminometry relative to control
[22] = molecular target: High affinity cGMP-specific 3',5'-cyclic phosphodiesterase 9A (Homo sapiens) (UniProt O76083); test: Inhibition of recombinant N-terminal GST-tagged full length human PDE9A2 expressed in Sf9 cells using F AM-cGMP as substrate at 10 uM incubated for 60 mins by fluorescence plate reader analysis
[23] = molecular target: Dual specificity calcium/calmodulin-dependent 3',5'-cyclic nucleotide phosphodiesterase 1C (Homo sapiens) (UniProt Q14123); test: Inhibition of recombinant N-terminal GST tagged human PDE1C (2 to 634 aa) expressed in Sf9 cells at 10 uM using FAM-cAMP as substrate incubated for 60 mins by fluorescence plate reader analysis
[24] = Toxicity in zebrafish embryo; set-up: species or system Danio rerio; details: in vivo
[25] = Half life in BALB/c mouse at 10 mg/kg, iv measured for 24 hrs post dose by LC-MS/MS analysis; format: ADME, organism-based; details: in vivo
[26] = test system: RAW264.7; test: Antiinflammatory activity in mouse RAW264.7 cells assessed as inhibition of LPS-induced TNFalpha mRNA expression preincubated for 30 mins followed by LPS stimulation and incubated for 10 hrs by qPCR analysis; format: functional, cell-based
[27] = Hepatotoxicity in zebrafish embryos assessed as liver size at 1 to 100 uM incubated for 7 dpf; format: toxicity, Danio rerio; details: in vivo
[28] = molecular target: Dual specificity calcium/calmodulin-dependent 3',5'-cyclic nucleotide phosphodiesterase 1B (Homo sapiens) (UniProt Q01064); test: Inhibition of recombinant N-terminal GST tagged full length human PDE1B expressed in Sf9 cells using FAM-cAMP as substrate at 10 uM incubated for 60 mins by fluorescence plate reader analysis
[29] = test system: Rattus norvegicus; test: Antiinflammatory activity in complete Freund's adjuvant-induced Wistar rat arthritis model assessed as reduction in iNOS mRNA expression at 30 mg/kg, ip administered from 11th day to 20th day by qPCR analysis; format: functional, organism-based
[30] = Clearance in BALB/c mouse at 10 mg/kg, iv measured for 24 hrs post dose by LC-MS/MS analysis; format: ADME, organism-based; details: in vivo
[31] = molecular target: 3',5'-cyclic-AMP phosphodiesterase 4A (Homo sapiens) (UniProt P27815); test: Inhibition of recombinant N-terminal GST tagged human PDE4A4B (2-end aa) expressed in Sf9 cells using FAM-cAMP as substrate at 10 uM incubated for 60 mins by fluorescence plate reader analysis
[32] = AUC (0 to extrap) in BALB/c mouse at 10 mg/kg, iv measured for 24 hrs post dose by LC-MS/MS analysis; format: ADME, organism-based; details: in vivo
[33] = molecular target: High affinity 3',5'-cyclic-AMP phosphodiesterase 7A (Homo sapiens) (UniProt Q13946); test: Inhibition of recombinant N-terminal GST tagged human PDE7A1 (122-end aa) expressed in Sf9 cells using FAM-cAMP as substrate at 10 uM incubated for 60 mins by fluorescence plate reader analysis
[34] = AUC (0 to infinity) in BALB/c mouse at 10 mg/kg, iv measured for 24 hrs post dose by LC-MS/MS analysis; format: ADME, organism-based; set-up: dose 10 mg/kg, time infinity, route intravenous; details: in vivo
[35] = Toxicity in zebrafish embryo assessed as effect in upper jaw formation at 1 to 100 uM; set-up: species or system Danio rerio; details: in vivo

Sequence of cGMP-dependent 3',5'-cyclic phosphodiesterase (Homo sapiens) (O00408 whole entry): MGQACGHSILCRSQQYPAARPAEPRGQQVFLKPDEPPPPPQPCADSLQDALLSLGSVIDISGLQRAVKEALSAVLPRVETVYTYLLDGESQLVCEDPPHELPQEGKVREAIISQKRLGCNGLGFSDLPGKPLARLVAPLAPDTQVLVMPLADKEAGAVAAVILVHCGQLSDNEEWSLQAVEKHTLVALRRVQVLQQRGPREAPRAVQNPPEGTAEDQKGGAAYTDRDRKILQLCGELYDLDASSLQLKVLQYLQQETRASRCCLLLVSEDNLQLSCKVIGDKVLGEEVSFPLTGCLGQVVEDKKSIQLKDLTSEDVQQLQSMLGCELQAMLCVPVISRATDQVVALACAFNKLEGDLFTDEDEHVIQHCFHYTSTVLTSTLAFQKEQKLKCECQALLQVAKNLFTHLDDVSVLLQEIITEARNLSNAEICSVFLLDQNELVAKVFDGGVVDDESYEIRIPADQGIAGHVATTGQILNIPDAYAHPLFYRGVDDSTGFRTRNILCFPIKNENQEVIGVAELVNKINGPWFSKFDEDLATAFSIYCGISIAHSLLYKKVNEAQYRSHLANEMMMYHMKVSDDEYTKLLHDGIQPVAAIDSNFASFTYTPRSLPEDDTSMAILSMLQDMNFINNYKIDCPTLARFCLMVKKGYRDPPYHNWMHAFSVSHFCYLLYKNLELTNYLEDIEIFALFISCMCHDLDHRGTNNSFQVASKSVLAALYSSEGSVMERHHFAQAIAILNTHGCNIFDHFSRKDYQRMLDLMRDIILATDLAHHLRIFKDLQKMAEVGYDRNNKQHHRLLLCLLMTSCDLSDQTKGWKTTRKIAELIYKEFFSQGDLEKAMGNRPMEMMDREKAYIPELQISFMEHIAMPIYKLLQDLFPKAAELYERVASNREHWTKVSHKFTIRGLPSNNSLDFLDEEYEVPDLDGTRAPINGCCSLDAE
Sequence of Cone cGMP-specific 3',5'-cyclic phosphodiesterase subunit alpha' (Homo sapiens) (P51160 whole entry): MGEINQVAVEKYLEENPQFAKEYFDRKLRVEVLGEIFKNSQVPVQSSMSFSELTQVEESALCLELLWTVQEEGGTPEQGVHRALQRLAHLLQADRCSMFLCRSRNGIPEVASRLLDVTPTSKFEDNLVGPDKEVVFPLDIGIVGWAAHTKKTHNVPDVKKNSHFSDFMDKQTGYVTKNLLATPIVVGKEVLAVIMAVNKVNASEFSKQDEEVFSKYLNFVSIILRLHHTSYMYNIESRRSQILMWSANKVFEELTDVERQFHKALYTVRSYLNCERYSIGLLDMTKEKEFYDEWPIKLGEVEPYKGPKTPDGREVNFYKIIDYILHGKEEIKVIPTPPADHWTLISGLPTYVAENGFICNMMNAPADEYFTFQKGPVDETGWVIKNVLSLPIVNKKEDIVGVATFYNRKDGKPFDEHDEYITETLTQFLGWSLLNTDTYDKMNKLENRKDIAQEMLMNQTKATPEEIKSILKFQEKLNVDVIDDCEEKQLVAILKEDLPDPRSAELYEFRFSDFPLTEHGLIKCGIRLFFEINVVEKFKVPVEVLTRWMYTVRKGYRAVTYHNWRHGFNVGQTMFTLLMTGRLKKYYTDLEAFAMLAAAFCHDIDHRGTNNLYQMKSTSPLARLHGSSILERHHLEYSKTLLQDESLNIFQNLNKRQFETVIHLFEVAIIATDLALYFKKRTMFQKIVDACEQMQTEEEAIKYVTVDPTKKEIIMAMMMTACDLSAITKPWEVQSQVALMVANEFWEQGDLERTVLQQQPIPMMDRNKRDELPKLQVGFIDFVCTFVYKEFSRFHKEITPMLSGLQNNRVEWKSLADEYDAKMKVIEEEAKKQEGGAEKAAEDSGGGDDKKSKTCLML
Sequence of Dual specificity calcium/calmodulin-dependent 3',5'-cyclic nucleotide phosphodiesterase 1B (Homo sapiens) (Q01064 whole entry): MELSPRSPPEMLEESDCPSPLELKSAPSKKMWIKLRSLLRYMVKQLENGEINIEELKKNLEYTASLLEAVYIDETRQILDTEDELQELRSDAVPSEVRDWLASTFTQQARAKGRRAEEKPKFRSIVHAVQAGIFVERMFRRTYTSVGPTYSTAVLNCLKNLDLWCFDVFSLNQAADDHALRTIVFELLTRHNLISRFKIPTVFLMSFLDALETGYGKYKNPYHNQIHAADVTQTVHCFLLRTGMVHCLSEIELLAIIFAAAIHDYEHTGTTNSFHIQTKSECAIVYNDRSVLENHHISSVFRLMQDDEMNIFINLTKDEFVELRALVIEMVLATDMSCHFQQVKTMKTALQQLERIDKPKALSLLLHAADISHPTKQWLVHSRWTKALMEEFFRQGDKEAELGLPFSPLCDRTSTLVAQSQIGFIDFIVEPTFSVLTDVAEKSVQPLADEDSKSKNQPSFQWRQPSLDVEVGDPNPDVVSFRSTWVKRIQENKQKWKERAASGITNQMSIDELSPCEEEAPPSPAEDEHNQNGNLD
Sequence of High affinity cGMP-specific 3',5'-cyclic phosphodiesterase 9A (Homo sapiens) (O76083 whole entry, the tested form may be a part): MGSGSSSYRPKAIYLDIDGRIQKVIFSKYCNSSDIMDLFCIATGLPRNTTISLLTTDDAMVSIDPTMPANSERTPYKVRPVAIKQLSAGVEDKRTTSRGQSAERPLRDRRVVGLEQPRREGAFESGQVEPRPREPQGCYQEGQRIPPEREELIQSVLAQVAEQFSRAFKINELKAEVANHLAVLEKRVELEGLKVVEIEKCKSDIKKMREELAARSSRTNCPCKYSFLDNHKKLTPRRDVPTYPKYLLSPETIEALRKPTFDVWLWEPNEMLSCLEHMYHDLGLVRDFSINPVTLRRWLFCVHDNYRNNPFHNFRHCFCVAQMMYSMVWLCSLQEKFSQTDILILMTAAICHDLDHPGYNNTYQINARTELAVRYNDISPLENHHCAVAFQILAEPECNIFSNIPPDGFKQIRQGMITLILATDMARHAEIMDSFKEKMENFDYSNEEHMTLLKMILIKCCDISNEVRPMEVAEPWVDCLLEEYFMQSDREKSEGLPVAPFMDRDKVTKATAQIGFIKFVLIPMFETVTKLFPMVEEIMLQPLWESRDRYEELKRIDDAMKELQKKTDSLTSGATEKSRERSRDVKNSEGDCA
Sequence of cAMP and cAMP-inhibited cGMP 3',5'-cyclic phosphodiesterase 10A (Homo sapiens) (Q9Y233 whole entry): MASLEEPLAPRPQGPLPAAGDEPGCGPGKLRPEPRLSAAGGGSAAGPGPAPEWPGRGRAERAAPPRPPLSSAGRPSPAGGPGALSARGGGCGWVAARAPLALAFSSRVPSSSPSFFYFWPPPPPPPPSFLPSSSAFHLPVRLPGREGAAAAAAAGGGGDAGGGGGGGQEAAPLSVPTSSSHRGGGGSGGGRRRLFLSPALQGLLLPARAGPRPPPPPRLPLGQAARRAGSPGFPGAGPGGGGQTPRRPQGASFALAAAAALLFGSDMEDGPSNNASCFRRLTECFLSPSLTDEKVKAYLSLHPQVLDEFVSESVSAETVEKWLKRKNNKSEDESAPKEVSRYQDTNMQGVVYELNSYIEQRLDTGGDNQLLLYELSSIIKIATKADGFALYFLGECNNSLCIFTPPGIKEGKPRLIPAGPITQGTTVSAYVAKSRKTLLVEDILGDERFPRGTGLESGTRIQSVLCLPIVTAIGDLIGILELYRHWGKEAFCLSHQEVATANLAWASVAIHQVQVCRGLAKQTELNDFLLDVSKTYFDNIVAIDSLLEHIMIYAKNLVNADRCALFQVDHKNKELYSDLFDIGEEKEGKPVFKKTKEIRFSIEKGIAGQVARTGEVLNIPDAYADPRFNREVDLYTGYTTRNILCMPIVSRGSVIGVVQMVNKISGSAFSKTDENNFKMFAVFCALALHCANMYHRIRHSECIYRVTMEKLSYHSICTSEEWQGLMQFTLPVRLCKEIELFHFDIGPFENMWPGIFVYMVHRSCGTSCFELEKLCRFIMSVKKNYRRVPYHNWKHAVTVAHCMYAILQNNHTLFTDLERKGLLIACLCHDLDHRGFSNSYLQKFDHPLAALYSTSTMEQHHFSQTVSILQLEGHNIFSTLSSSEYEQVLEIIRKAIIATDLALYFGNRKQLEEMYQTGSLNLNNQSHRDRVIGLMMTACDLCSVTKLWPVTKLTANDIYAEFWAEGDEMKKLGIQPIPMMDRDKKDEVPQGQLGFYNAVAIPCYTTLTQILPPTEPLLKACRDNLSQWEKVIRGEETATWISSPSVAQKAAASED
Sequence of 3',5'-cyclic-AMP phosphodiesterase 4A (Homo sapiens) (P27815 whole entry): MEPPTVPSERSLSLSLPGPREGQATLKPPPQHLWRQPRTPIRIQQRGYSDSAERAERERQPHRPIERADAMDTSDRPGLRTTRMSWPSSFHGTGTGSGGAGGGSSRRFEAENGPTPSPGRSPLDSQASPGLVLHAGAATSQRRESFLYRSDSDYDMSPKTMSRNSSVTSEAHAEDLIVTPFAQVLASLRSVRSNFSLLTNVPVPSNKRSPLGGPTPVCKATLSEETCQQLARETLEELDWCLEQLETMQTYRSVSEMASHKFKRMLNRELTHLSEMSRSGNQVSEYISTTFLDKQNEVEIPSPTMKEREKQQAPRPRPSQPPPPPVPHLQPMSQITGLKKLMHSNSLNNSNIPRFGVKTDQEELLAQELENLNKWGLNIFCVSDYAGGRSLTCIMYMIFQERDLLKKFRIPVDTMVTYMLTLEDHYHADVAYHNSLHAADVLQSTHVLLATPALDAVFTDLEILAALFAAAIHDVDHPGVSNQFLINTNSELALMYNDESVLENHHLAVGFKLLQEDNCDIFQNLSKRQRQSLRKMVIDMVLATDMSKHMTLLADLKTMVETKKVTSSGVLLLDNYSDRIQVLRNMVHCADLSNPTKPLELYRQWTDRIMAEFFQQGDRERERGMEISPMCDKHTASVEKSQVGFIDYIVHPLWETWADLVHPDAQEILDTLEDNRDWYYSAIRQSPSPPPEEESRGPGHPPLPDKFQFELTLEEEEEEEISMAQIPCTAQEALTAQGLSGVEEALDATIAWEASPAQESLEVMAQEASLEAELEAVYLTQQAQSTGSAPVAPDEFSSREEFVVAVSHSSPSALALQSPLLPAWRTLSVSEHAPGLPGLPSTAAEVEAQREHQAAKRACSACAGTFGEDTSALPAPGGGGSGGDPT

With `C=CCn1cc(-c2nc3ccccc3nc2Cl)c2cc(OC)ccc21` the C0 at 24 h [1] was 5060 ng/mL, the inhibition [2] was “Active” and the Vd [3] was 4.46 L/kg. The inhibition [4] was 2%, the Activity [5] was “Non-Toxic” and the half-life at 5 µM [6] was 52.5 min. For the same molecule, the Activity [7] was “Non-Toxic”, the remaining at 60 min, 5 µM [8] was 42.2% and the inhibition [9] was 15%. The inhibition [10] was 3%, the Activity [11] was “Toxic” and the inhibition [12] was “Active”. The inhibition [13] was “Active”, the MRT last at 24 h [14] was 21.6 min and the Ratio IC50 [15] was 27. The Activity [16] was “Non-Toxic”, the Activity [17] was “Non-Toxic” and the Activity [18] was “Non-Toxic”. For the same molecule, the Activity [19] was “Non-Toxic”, the AUC(0-t) at 24 h [20] was 1090 ng·h/mL and the inhibition [21] was > 75%. It also gave an inhibition [22] of 9%, an inhibition [23] of 39% and an NOAEL [24] of 30 µM. The half-life [25] was 38.4 min, the inhibition [26] was “Active” and the Activity [27] was “Non-Toxic”. The inhibition [28] was 23%, the inhibition [29] was “Active” and the clearance [30] was 143 mL/min/kg. For the same molecule, the inhibition [31] was 36%, the “%AUCextra” value [32] was 6.23% and the inhibition [33] was 3%. The AUC(0-inf) [34] was 1160 ng·h/mL and the Activity [35] was “Toxic”.
